Measured values taken from PubChem BioAssay (NCI).
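Protocol summary: plate cells (96-well), add compound at 5 concentrations, incubate 48 h, interpolate endpoints linearly. GI50: concentration for 50% inhibition of growth. TGI denotes the concentration required for complete inhibition of growth.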

Test system: A549 NSCLC
Test: inhibition of tumour cell growth, NCI panel, 48 h

`O=C(CC1Sc2ccccc2NC1=O)Nc1ccccc1[N+](=O)[O-]` (stereo not given) and `O=C1OC(c2ccccc2)=N/C1=C\c1ccc([N+](=O)[O-])cc1` cannot be ordered by TGI: > 100 µM for the first, > 100 µM for the second.

`CCOC(=O)c1csc(NC(=O)CN2CCCC2)n1` and `CON(C)C(=O)C(Cc1ccccc1)NC(=O)OCc1ccccc1` (stereo not given) cannot be ordered by TGI: > 100 µM for the first, > 100 µM for the second.

Going from `CCn1cnc2c(=S)nc(N)[nH]c21` to `CCCCCCOc1ccc(/C=N/Nc2cc(C)nc3ccc(Cl)cc23)cc1`, the TGI falls from > 100 µM to 3.73 µM.

Going from `CC1NC(=O)C(C)C(c2ccccc2)N(N=O)C1c1ccccc1` (stereo not given) to `CO[C@](C(=O)OC[C@H]1[C@@H](COC(C)=O)[C@@H]2O[C@H]1c1cc3c(cc12)OCO3)(c1ccccc1)C(F)(F)F`, the TGI falls from > 100 µM to 94.3 µM.

Going from `O=C(O)Cc1ccc([N+](=O)[O-])cc1[N+](=O)[O-]` to `Cc1ccc(C(=O)OC(C(=O)O)C(OC(=O)c2ccc(C)cc2)C(=O)O)cc1` (stereo not given) (tested in a mixture with another compound), the TGI falls from > 100 µM to 22.3 µM.

Work on `CCCCCCOc1ccc(/C=N/Nc2cc(C)nc3ccc(Cl)cc23)cc1` yielded a GI50 of 1.93 µM.

Test system: ACHN renal
Test: inhibition of tumour cell growth, NCI panel, 48 h

Compared with `O=C(CC1Sc2ccccc2NC1=O)Nc1ccccc1[N+](=O)[O-]` (stereo not given), `O=C1OC(c2ccccc2)=N/C1=C\c1ccc([N+](=O)[O-])cc1` is lower in TGI: > 100 µM for the first, 40.5 µM for the second.

Going from `CCOC(=O)c1csc(NC(=O)CN2CCCC2)n1` to `COc1cc(/C=C2\CN(S(=O)(=O)c3ccc(C)cc3)C/C(=C\c3cc(CN4CCCC4)c(O)c(OC)c3)C2=O)cc(CN2CCCC2)c1O`, the TGI falls from > 100 µM to 2.71 µM.

Compared with `CCn1cnc2c(=S)nc(N)[nH]c21`, `CCCCCCOc1ccc(/C=N/Nc2cc(C)nc3ccc(Cl)cc23)cc1` is lower in TGI: > 100 µM for the first, 3.08 µM for the second.

`O=C(O)Cc1ccc([N+](=O)[O-])cc1[N+](=O)[O-]` and `CON(C)C(=O)C(Cc1ccccc1)NC(=O)OCc1ccccc1` (stereo not given) cannot be ordered by TGI: > 100 µM for the first, > 100 µM for the second.

In order of falling GI50:
1. CCCCCCOc1ccc(/C=N/Nc2cc(C)nc3ccc(Cl)cc23)cc1  1.71 µM
2. COc1cc(/C=C2\CN(S(=O)(=O)c3ccc(C)cc3)C/C(=C\c3cc(CN4CCCC4)c(O)c(OC)c3)C2=O)cc(CN2CCCC2)c1O  1.38 µM

Test system: NCI-H522 lung
Test: inhibition of tumour cell growth, NCI panel, 48 h

First: O=C(CC1Sc2ccccc2NC1=O)Nc1ccccc1[N+](=O)[O-] (stereo not given)
Second: O=C1OC(c2ccccc2)=N/C1=C\c1ccc([N+](=O)[O-])cc1
The TGI of the first is lower: 32.8 µM for the first, > 100 µM for the second.

Going from `CCn1cnc2c(=S)nc(N)[nH]c21` to `CCCCCCOc1ccc(/C=N/Nc2cc(C)nc3ccc(Cl)cc23)cc1`, the TGI falls from > 100 µM to 3.51 µM.

`CC1NC(=O)C(C)C(c2ccccc2)N(N=O)C1c1ccccc1` (stereo not given) and `CON(C)C(=O)C(Cc1ccccc1)NC(=O)OCc1ccccc1` (stereo not given) cannot be ordered by TGI: > 100 µM for the first, > 100 µM for the second.

Compared with `CO[C@](C(=O)OC[C@H]1[C@@H](COC(C)=O)[C@@H]2O[C@H]1c1cc3c(cc12)OCO3)(c1ccccc1)C(F)(F)F`, `Cc1ccc(C(=O)OC(C(=O)O)C(OC(=O)c2ccc(C)cc2)C(=O)O)cc1` (stereo not given) (tested in a mixture with another compound) is 1.5-fold lower in TGI: 17.2 µM for the first, 11.4 µM for the second.

Going from `O=C(O)Cc1ccc([N+](=O)[O-])cc1[N+](=O)[O-]` to `COc1cc(/C=C2\CN(S(=O)(=O)c3ccc(C)cc3)C/C(=C\c3cc(CN4CCCC4)c(O)c(OC)c3)C2=O)cc(CN2CCCC2)c1O`, the TGI falls from > 100 µM to 2.3 µM.

In order of falling GI50:
1. CCCCCCOc1ccc(/C=N/Nc2cc(C)nc3ccc(Cl)cc23)cc1  1.79 µM
2. COc1cc(/C=C2\CN(S(=O)(=O)c3ccc(C)cc3)C/C(=C\c3cc(CN4CCCC4)c(O)c(OC)c3)C2=O)cc(CN2CCCC2)c1O  0.433 µM

Test system: NCI/ADR-RES ovarian
Test: inhibition of tumour cell growth, NCI panel, 48 h

`CCOC(=O)c1csc(NC(=O)CN2CCCC2)n1` and `COc1cc(/C=C2\CN(S(=O)(=O)c3ccc(C)cc3)C/C(=C\c3cc(CN4CCCC4)c(O)c(OC)c3)C2=O)cc(CN2CCCC2)c1O` cannot be ordered by TGI: > 100 µM for the first, > 100 µM for the second.

Going from `CC1NC(=O)C(C)C(c2ccccc2)N(N=O)C1c1ccccc1` (stereo not given) to `O=C1OC(c2ccccc2)=N/C1=C\c1ccc([N+](=O)[O-])cc1`, the TGI falls from > 100 µM to 55.1 µM.

First: O=C(O)Cc1ccc([N+](=O)[O-])cc1[N+](=O)[O-]
Second: Cc1ccc(C(=O)OC(C(=O)O)C(OC(=O)c2ccc(C)cc2)C(=O)O)cc1 (stereo not given) (tested in a mixture with another compound)
The TGI of the first is higher: > 100 µM for the first, 23 µM for the second.

`CCCCCCOc1ccc(/C=N/Nc2cc(C)nc3ccc(Cl)cc23)cc1` showed a TGI of 3.7 µM.

In order of rising GI50:
1. CCCCCCOc1ccc(/C=N/Nc2cc(C)nc3ccc(Cl)cc23)cc1  1.9 µM
2. COc1cc(/C=C2\CN(S(=O)(=O)c3ccc(C)cc3)C/C(=C\c3cc(CN4CCCC4)c(O)c(OC)c3)C2=O)cc(CN2CCCC2)c1O  12 µM

Test system: OVCAR-3 ovarian
Test: inhibition of tumour cell growth, NCI panel, 48 h

`O=C(CC1Sc2ccccc2NC1=O)Nc1ccccc1[N+](=O)[O-]` (stereo not given) and `O=C1OC(c2ccccc2)=N/C1=C\c1ccc([N+](=O)[O-])cc1` cannot be ordered by TGI: > 100 µM for the first, > 100 µM for the second.

First: CCOC(=O)c1csc(NC(=O)CN2CCCC2)n1
Second: COc1cc(/C=C2\CN(S(=O)(=O)c3ccc(C)cc3)C/C(=C\c3cc(CN4CCCC4)c(O)c(OC)c3)C2=O)cc(CN2CCCC2)c1O
The TGI of the first is higher: > 100 µM for the first, 2.35 µM for the second.

Going from `CCn1cnc2c(=S)nc(N)[nH]c21` to `CCCCCCOc1ccc(/C=N/Nc2cc(C)nc3ccc(Cl)cc23)cc1`, the TGI falls from > 100 µM to 3.74 µM.

`CC1NC(=O)C(C)C(c2ccccc2)N(N=O)C1c1ccccc1` (stereo not given) and `CON(C)C(=O)C(Cc1ccccc1)NC(=O)OCc1ccccc1` (stereo not given) cannot be ordered by TGI: > 100 µM for the first, > 100 µM for the second.

Going from `CO[C@](C(=O)OC[C@H]1[C@@H](COC(C)=O)[C@@H]2O[C@H]1c1cc3c(cc12)OCO3)(c1ccccc1)C(F)(F)F` to `Cc1ccc(C(=O)OC(C(=O)O)C(OC(=O)c2ccc(C)cc2)C(=O)O)cc1` (stereo not given) (tested in a mixture with another compound), the TGI falls from > 100 µM to 22.4 µM.

With `O=C(O)Cc1ccc([N+](=O)[O-])cc1[N+](=O)[O-]` the TGI was > 100 µM.

In order of falling GI50:
1. CCCCCCOc1ccc(/C=N/Nc2cc(C)nc3ccc(Cl)cc23)cc1  2.05 µM
2. COc1cc(/C=C2\CN(S(=O)(=O)c3ccc(C)cc3)C/C(=C\c3cc(CN4CCCC4)c(O)c(OC)c3)C2=O)cc(CN2CCCC2)c1O  1.07 µM
